# According to ChEMBL document CHEMBL5331077, “Combining pharmacophore models derived from DNA-encoded chemical libraries with structure-based exploration to predict Tankyrase 1 inhibitors” (Eur J Med Chem, 2023):
# Legend:
# [1] = target: T1, Poly [ADP-ribose] polymerase tankyrase-1 (Homo sapiens, UniProt O95271); assay: Inhibition of TNKS1 (unknown origin) using biotinylated NAD as substrate preincubated for 30 mins followed by substrate addition and measured after 1 hr by BioTek synergy 2 microplate reader analysis
# T1 sequence (O95271 whole entry): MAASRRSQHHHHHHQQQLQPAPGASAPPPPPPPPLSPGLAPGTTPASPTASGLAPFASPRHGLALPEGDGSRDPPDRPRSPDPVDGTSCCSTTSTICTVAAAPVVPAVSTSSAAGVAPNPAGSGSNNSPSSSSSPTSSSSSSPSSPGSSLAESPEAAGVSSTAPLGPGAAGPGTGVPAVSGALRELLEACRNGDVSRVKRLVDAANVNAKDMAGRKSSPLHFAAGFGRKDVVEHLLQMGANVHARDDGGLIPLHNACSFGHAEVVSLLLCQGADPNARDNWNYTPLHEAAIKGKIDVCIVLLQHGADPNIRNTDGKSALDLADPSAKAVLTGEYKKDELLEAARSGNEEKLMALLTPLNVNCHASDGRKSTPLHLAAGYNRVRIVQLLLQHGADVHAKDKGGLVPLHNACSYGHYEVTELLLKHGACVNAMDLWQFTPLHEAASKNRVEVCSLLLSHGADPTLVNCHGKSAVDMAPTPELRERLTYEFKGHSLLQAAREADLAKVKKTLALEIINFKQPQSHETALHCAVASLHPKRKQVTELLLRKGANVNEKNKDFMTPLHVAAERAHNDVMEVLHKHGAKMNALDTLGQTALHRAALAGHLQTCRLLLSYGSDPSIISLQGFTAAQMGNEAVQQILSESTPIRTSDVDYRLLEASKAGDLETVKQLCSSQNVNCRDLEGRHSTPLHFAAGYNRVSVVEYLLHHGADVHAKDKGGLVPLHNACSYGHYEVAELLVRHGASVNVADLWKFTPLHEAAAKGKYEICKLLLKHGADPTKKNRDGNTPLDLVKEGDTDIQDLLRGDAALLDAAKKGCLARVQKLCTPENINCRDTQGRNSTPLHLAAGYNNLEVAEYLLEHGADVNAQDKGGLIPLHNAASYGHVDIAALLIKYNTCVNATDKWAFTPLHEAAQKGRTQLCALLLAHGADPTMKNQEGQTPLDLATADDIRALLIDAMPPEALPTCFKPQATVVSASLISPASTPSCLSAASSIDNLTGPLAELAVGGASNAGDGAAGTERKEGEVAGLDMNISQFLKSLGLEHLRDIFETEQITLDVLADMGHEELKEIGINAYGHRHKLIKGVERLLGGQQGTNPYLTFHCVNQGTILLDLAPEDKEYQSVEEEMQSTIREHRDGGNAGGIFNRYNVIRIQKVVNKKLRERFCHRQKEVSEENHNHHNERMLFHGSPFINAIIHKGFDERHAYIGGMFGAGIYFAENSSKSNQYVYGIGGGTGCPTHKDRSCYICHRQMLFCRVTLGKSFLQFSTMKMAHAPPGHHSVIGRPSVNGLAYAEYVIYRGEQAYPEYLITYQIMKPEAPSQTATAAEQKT
# [2] = target: T2, Poly [ADP-ribose] polymerase tankyrase-1 (Homo sapiens) (UniProt O95271); assay: Inhibition of TNKS1 (unknown origin) at 10 uM using biotinylated NAD as substrate preincubated for 30 mins followed by substrate addition and measured after 1 hr by BioTek synergy 2 microplate reader analysis relative to control; conditions: time 90.0 min
# T2 sequence (whole entry): T1 sequence (O95271 whole entry)
# [3] = target: T2, Poly [ADP-ribose] polymerase tankyrase-1 (Homo sapiens); assay: Inhibition of TNKS1 (unknown origin) at 100 nM using biotinylated NAD as substrate preincubated for 30 mins followed by substrate addition and measured after 1 hr by BioTek synergy 2 microplate reader analysis relative to control; conditions: time 90.0 min
# [4] = target: T3, Poly [ADP-ribose] polymerase tankyrase-2 (Homo sapiens) (UniProt Q9H2K2); assay: Inhibition of TNKS2 (unknown origin) at 50 nM relative to control
# T3 sequence (whole entry): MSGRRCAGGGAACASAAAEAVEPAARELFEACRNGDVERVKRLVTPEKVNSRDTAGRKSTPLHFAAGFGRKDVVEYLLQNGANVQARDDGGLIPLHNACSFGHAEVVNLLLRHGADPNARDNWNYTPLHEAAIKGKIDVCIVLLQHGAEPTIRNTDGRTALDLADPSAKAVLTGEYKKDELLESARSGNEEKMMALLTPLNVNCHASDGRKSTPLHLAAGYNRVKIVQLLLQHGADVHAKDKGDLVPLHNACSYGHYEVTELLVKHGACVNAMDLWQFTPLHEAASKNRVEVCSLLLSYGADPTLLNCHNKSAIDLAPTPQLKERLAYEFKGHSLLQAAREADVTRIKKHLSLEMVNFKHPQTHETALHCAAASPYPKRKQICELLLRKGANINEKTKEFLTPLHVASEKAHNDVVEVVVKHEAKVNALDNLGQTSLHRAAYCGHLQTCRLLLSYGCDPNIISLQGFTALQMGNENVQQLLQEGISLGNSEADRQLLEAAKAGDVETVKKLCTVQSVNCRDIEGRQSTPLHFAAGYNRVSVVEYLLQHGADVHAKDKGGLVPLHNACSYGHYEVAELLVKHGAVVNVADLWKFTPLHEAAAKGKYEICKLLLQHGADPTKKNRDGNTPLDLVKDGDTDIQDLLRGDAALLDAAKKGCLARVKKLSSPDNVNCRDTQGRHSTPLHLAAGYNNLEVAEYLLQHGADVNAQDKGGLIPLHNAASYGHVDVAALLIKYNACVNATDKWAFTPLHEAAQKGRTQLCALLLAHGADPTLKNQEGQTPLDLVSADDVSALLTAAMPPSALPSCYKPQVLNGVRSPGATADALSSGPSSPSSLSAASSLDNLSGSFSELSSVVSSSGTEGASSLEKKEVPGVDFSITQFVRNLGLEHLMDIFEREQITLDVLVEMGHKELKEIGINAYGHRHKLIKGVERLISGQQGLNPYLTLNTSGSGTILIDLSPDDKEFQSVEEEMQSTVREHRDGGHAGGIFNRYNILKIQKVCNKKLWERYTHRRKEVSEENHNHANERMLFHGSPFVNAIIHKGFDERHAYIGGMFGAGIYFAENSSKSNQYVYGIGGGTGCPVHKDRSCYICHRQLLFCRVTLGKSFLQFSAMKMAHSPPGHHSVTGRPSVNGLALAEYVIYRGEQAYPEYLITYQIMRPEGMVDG
# [5] = target: Poly [ADP-ribose] polymerase 2 (Homo sapiens) (UniProt Q9UGN5); assay: Inhibition of human PARP2 at 50 nM relative to control
# [6] = target: Poly [ADP-ribose] polymerase 2 (Homo sapiens) (UniProt Q9UGN5); assay: Inhibition of human PARP2 at 0.5 uM relative to control
# [7] = target: Poly [ADP-ribose] polymerase 1 (Homo sapiens) (UniProt P09874); assay: Inhibition of human PARP1 at 0.5 uM relative to control
# [8] = target: T3, Poly [ADP-ribose] polymerase tankyrase-2 (Homo sapiens); assay: Inhibition of TNKS2 (unknown origin) at 0.5 uM relative to control
# [9] = target: Poly [ADP-ribose] polymerase 1 (Homo sapiens) (UniProt P09874); assay: Inhibition of human PARP1 at 50 nM relative to control
# Chain of Poly [ADP-ribose] polymerase 2 (Homo sapiens) (Q9UGN5 whole entry): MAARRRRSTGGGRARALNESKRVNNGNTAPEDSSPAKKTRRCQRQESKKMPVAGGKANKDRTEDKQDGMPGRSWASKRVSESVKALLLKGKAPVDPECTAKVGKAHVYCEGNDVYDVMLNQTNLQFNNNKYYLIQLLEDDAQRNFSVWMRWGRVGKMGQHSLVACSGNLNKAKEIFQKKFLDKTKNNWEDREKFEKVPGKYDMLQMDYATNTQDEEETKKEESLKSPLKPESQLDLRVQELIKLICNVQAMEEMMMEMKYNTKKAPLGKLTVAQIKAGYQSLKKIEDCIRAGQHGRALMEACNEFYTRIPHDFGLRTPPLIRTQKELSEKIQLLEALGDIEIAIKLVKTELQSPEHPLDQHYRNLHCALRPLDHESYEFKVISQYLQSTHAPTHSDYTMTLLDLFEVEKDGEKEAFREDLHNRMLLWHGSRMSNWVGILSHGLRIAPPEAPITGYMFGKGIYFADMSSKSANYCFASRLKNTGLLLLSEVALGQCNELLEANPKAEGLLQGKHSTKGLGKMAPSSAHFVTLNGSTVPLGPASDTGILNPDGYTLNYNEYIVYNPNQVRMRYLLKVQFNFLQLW
# Chain of Poly [ADP-ribose] polymerase 1 (Homo sapiens) (P09874 whole entry): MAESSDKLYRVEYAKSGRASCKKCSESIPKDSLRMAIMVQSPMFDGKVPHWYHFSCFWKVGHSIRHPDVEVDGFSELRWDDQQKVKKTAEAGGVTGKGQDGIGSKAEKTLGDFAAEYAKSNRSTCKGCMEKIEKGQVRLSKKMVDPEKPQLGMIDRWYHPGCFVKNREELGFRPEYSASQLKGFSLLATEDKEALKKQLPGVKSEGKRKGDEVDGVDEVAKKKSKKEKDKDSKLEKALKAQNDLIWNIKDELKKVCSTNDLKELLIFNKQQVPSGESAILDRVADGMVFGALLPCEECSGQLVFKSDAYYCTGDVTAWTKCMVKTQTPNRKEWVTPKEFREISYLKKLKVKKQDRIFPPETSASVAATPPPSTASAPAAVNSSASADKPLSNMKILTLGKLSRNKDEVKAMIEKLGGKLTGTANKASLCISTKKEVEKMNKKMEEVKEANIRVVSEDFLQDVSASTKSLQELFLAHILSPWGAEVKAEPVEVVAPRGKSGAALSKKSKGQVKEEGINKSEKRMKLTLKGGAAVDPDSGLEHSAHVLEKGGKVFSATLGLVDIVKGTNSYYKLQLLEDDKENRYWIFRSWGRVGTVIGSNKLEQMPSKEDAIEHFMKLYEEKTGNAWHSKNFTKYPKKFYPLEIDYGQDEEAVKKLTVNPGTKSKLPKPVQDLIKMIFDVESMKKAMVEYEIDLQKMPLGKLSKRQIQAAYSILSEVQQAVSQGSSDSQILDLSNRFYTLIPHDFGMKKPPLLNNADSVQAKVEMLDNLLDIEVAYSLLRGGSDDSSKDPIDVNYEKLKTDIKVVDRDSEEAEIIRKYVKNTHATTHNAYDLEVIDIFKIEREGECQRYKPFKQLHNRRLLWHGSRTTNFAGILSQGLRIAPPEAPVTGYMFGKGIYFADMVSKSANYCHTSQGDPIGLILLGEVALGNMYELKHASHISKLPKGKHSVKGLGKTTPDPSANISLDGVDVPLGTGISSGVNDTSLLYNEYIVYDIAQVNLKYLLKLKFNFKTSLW
Structure (SMILES),IC50 [1],inhibition [2],other results
COc1ccc2c(c1)C(CC(=O)NCCNC(=O)CCn1c(=O)[nH]c(=O)c3ccccc31)CC2=O (stereo not drawn),15 nM,–,–
CC(=O)N1CCC[C@H]1C(=O)NCCNC(=O)Cn1[nH]c(=O)c2ccccc2c1=O,4900 nM,–,–
O=C(CCn1c(=O)[nH]c(=O)c2ccccc21)NCCNC(=O)c1cnc2ccccc2c1,8.3 nM,–,–
Cc1ccc(C)c(NC(=O)CSc2nnc(Cc3cc(=O)[nH]c(=O)[nH]3)n2-c2ccc(Cl)cc2)c1,–,7%,inhibition [3]: 0%
CC(=O)N1CCC[C@H]1C(=O)NCCNC(=O)CCn1c(=O)[nH]c(=O)c2ccccc21,26000 nM,–,–
O=C(NCCNC(=O)c1n[nH]c(=O)c2ccccc12)c1cccc(CN2C(=O)CNC2=O)c1,69 nM,–,inhibition [4]: 49%; inhibition [5]: 3%; inhibition [6]: 53%; inhibition [7]: 47%; inhibition [8]: 93%; inhibition [9]: 17%
COc1ccc(C(N)=O)cc1NC(=O)c1cccc(-c2cnc3[nH]c(=O)n(C)c3c2)c1,–,97%,inhibition [3]: 3%
O=C(Cc1n[nH]c(=O)c2ccccc12)Nc1ccc(Cc2nc3ccccc3s2)cc1,–,35%,–
O[C@H](c1ccccc1)c1cn(C2CCN(Cc3cnc4ccccc4c3)CC2)nn1,–,5%,–
O=C(Cn1cnc2ccccc2c1=O)N1CCC(c2nnc(-c3ccco3)s2)CC1,–,0%,–
O=C(CCc1nc2ccccc2c(=O)[nH]1)Nc1ccc(-n2cnnn2)cc1,–,67%,–
Cc1ccc2c(c1)NC(=O)C2CC(=O)NCCNC(=O)CCn1c(=O)[nH]c(=O)c2ccccc21 (stereo not drawn),75 nM,–,–
O=C(Cc1n[nH]c(=O)c2ccccc12)OCC(=O)N1CCN(c2ccccn2)CC1,22 nM,100%,inhibition [3]: 78%
CNC(=O)[C@H](CNC(=O)Cn1[nH]c(=O)c2ccccc2c1=O)NC(=O)c1cnc(C)cn1,140 nM,–,–
Cc1cnc(C(=O)NCCNC(=O)Cn2[nH]c(=O)c3ccccc3c2=O)cn1,47 nM,–,inhibition [4]: 49%; inhibition [5]: 0%; inhibition [6]: 52%; inhibition [7]: 52%; inhibition [8]: 92%; inhibition [9]: 14%
CNC(=O)[C@H](CNC(=O)c1cccc(COc2ccccc2C(N)=O)c1)NC(=O)COc1cc(C)cc2oc(=O)c3c(c12)CCC3,33 nM,–,–
O=C(NCc1ccc(-c2ccc3c(c2)CCCO3)cc1)c1nc2ccccc2c(=O)[nH]1,–,74%,–
